Reference: ChEMBL document CHEMBL1201862, “PubChem BioAssay data set” (2004)
Active and inactive are the calls of the source.

Columns and labels:
Steroidogenic factor 1 = Steroidogenic factor 1 (Homo sapiens, UniProt Q13285); experiment: Counterscreen for inverse agonists of the liver receptor homolog-1 (LRH-1; NR5A2): Luminescence-based cell-based high throughput dose response assay to identify inverse agonists of the Steroidogenic Factor 1 Nuclear Receptor (SF1; NR5A1).; format: functional
[1] = molecular target: T1, Corticotropin-releasing factor receptor 2/Corticotropin-releasing factor-binding protein (Homo sapiens, UniProt P24387+Q13324); experiment: Dose Response confirmation of uHTS hits for small molecule antagonists of the CRF-binding protein and CRF-R2 receptor complex.; format: functional; conditions: read-out: IC50_Mean
T1 sequence (Q13324 whole entry): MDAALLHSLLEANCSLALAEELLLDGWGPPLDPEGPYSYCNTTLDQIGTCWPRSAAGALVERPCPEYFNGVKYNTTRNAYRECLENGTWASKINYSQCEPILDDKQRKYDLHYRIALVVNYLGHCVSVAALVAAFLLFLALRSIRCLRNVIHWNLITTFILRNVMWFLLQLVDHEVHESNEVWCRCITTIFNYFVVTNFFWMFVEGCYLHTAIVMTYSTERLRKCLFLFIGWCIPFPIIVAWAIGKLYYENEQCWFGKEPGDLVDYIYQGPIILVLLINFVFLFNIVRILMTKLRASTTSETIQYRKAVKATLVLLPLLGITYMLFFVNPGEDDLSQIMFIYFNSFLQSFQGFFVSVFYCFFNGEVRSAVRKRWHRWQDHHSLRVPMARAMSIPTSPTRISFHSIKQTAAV
T1 sequence (P24387 whole entry): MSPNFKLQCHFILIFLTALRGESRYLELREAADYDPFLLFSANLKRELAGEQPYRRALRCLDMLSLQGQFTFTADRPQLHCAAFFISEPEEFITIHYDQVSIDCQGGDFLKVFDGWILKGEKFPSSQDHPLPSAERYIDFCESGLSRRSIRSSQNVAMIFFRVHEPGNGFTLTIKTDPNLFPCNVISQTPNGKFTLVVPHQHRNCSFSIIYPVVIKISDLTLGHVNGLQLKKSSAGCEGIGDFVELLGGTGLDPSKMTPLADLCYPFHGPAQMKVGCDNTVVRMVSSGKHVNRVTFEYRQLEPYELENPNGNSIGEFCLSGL

[2] = molecular target: Nuclear receptor subfamily 5 group A member 2 (Homo sapiens, UniProt O00482); format: functional, cell-based;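 further: HEK293T cells transfected with LRH-1 and a StAR promoter luciferase reporter; potency for inhibitors that lower LRH-1 driven reporter light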
Nuclear receptor subfamily 5 group A member 2, sequence (O00482 whole entry): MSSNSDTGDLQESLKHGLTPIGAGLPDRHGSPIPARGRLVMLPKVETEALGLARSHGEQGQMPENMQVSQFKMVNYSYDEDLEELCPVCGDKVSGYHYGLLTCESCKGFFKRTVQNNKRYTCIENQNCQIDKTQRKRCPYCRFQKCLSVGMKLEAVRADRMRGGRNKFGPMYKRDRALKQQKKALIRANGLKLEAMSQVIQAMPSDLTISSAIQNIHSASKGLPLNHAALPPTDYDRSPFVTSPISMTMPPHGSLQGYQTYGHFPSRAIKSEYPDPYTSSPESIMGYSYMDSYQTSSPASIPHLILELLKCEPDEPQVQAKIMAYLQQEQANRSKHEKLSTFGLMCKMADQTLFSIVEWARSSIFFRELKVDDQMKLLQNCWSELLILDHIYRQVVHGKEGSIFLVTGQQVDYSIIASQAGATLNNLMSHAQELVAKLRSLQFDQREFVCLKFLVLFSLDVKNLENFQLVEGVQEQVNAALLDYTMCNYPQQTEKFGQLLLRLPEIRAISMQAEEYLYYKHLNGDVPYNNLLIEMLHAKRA

Leucine aminopeptidase = molecular target: T2, Leucine aminopeptidase (Plasmodium falciparum 3D7, UniProt Q8IL11); experiment: P. falciparum M17LAP inhibitors, primary screen, biochemical, fluorogenic H-Leu-NHMec substrate, 1536-well (AID 1619); format: functional
T2 sequence (Q8IL11 whole entry): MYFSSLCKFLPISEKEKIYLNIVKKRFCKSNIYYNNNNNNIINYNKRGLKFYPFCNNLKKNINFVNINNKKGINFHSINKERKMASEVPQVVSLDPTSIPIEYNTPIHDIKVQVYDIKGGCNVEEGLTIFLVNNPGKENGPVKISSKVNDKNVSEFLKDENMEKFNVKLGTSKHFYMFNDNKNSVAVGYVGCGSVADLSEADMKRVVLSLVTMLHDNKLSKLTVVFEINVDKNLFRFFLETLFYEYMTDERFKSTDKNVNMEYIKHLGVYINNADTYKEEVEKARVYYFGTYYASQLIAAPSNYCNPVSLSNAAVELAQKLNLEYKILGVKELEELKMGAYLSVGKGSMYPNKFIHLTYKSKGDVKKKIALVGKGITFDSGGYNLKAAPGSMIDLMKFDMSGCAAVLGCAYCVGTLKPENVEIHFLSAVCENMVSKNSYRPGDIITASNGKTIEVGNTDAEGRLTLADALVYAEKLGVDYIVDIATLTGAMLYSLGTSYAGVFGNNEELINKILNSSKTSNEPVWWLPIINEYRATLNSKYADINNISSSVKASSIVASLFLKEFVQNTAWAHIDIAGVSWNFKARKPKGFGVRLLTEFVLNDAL

[3] = molecular target: T1, Corticotropin-releasing factor receptor 2/Corticotropin-releasing factor-binding protein; experiment: activators of CRF receptor 2 with binding protein – uHTS hits, confirmation (AID 602473); format: functional; conditions: read-out: EC50_Mean
SUMO-activating enzyme [4] = molecular target: T3, SUMO-activating enzyme (Homo sapiens, UniProt Q9UBT2); experiment: blockers of UBC9-mediated SUMO conjugation – biochemical, AlphaScreen, SUMOylation inhibitor project, confirmation (AID 2018); format: functional
T3 sequence (Q9UBE0 whole entry): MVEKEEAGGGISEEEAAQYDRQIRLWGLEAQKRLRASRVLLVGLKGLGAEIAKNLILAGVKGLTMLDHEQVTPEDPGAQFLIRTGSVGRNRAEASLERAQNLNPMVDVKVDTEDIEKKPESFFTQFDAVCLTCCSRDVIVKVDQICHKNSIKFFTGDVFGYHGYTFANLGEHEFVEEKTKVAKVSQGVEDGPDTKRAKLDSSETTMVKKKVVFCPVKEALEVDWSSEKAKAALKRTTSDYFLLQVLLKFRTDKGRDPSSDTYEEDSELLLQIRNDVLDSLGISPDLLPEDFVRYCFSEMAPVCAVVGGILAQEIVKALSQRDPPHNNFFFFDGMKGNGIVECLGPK
T3 sequence (Q9UBT2 whole entry): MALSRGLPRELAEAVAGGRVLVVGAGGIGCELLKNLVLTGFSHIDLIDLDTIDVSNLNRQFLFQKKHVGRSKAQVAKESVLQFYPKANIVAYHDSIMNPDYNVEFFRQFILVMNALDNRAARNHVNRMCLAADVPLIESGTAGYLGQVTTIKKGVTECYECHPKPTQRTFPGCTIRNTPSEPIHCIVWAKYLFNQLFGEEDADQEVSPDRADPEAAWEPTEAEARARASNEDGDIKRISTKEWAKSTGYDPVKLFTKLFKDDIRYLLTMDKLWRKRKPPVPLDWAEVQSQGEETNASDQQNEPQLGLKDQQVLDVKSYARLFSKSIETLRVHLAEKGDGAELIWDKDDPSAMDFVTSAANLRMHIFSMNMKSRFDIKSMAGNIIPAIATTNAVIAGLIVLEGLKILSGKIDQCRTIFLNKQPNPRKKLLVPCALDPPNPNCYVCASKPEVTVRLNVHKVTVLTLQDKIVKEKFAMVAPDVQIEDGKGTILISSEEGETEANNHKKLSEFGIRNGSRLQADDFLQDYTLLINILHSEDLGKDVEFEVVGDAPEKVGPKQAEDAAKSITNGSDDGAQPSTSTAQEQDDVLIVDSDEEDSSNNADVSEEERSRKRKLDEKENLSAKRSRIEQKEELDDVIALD

[5] = molecular target: Peroxisome proliferator-activated receptor gamma/Nuclear receptor coactivator 3 (Homo sapiens, UniProt P37231); format: functional;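 further: agonist potency for raising coactivator recruitment to the receptor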
[6] = molecular target: T4, Tyrosine-protein phosphatase non-receptor type 22 (Homo sapiens, UniProt Q9Y2R2); experiment: PTPN22 enzyme inhibitors – biochemical, fluorescence, LYP catalytic domain, selectivity assay for LMPTP inhibitor project, dose response (AID 652006); format: functional; conditions: read-out: IC50_Mean
T4 sequence (Q9Y2R2 whole entry): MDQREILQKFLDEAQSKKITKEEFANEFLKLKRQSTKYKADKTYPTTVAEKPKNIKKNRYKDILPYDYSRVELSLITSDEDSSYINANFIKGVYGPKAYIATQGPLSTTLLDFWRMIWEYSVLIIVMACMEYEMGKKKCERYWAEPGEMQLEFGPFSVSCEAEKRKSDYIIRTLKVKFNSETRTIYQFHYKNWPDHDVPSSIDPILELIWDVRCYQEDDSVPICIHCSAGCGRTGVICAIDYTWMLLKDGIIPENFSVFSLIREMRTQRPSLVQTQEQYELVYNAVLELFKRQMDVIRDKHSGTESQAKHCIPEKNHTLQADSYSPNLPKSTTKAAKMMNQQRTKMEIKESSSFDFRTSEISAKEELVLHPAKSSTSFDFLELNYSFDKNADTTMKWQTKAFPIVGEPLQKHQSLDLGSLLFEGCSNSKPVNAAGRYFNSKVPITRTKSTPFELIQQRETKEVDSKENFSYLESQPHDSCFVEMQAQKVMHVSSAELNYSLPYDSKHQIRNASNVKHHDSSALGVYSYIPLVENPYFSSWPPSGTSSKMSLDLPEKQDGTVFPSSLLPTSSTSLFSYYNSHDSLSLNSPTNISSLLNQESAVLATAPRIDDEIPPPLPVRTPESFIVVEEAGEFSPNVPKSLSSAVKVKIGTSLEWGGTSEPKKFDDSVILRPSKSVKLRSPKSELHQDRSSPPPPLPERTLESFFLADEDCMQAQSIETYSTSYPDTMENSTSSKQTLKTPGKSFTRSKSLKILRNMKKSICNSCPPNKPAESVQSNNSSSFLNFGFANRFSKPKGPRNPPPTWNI

[7] = molecular target: T5, Carboxy-terminal domain RNA polymerase II polypeptide A small phosphatase 1 (Homo sapiens, UniProt Q9GZU7); experiment: CTDSP1 inhibitors, concentration-response, biochemical, absorbance readout, ultra-high-throughput screen actives (AID 540297); format: functional
T5 sequence (Q9GZU7 whole entry): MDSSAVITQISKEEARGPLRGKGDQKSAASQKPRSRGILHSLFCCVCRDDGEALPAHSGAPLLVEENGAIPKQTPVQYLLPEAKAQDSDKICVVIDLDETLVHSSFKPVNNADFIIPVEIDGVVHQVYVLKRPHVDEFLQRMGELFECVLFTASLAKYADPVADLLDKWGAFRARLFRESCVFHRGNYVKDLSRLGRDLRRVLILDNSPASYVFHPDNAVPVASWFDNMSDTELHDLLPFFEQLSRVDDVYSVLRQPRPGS

[8] = viability of HCT116 lacking mutant beta-catenin – cell-based, human colon tumor, dose response (AID 1045); format: functional;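 further: HCT116 colon tumor cells with beta catenin knocked out; cells exposed to compound for 60 hours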
[9] = molecular target: Peroxisome proliferator-activated receptor gamma/Nuclear receptor coactivator 1 (Homo sapiens, UniProt P37231); format: functional;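 further: agonist potency as compounds enhance coactivator SRC-1 recruitment to PPARgamma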
[10] = viability of PTEN-deleted HCT116 cells – cell-based, HCT116 PTEN knockout, dose response (AID 1047); format: functional;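 further: HCT116 colon tumor cells with PTEN knocked out; cells exposed to compound for 60 hours before readout; potency for loss of cell viability measured by luminescence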
[11] = molecular target: T6, Low molecular weight phosphotyrosine protein phosphatase (Homo sapiens, UniProt P24666); format: functional; conditions: read-out: IC50_Mean
T6 sequence (P24666 whole entry): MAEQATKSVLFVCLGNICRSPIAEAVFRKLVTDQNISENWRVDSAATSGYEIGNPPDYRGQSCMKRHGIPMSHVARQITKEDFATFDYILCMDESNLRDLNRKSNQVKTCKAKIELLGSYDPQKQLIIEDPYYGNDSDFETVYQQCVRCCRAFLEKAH

SUMO-activating enzyme [12] = molecular target: T3, SUMO-activating enzyme; experiment: blockers of SAE1/SAE2–UBC9 SUMO transfer – biochemical, HTRF, uHTS, primary screen (AID 2006); format: protein-complex assay
[13] = molecular target: Peroxisome proliferator-activated receptor gamma/Nuclear receptor coactivator 2 (Homo sapiens, UniProt P37231); format: functional;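 further: agonist potency for raising coactivator recruitment to the receptor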
[14] = molecular target: T6, Low molecular weight phosphotyrosine protein phosphatase; format: functional; conditions: read-out: IC50_Mean; remark: listed apart in the source
[15] = nonselective StAR promoter luciferase inhibitors – cell-based, luminescence, luciferase reporter, counter-screen for LRH-1 inverse agonist project, dose response (AID 651969); format: functional
[16] = molecular target: T7, Probable nicotinate-nucleotide adenylyltransferase (Staphylococcus aureus (strain N315), UniProt P65502); format: functional, Staphylococcus aureus subsp. aureus N315; conditions: read-out: IC50_Mean;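 on IC50 Mean: confirmatory dose-response retesting of NadD inhibitor hits first found in an ultra-high-throughput screen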
T7 sequence (P65502 whole entry): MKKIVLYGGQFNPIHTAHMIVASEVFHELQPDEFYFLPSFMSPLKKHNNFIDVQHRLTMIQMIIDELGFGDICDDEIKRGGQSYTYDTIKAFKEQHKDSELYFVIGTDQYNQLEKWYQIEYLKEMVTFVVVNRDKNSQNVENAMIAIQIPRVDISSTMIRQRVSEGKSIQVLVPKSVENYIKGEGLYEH

[17] = molecular target: T7, Probable nicotinate-nucleotide adenylyltransferase; format: functional, Staphylococcus aureus subsp. aureus N315
Genome polyprotein = Genome polyprotein (dengue virus type 2, UniProt P29990); experiment: flavivirus cap methylation enzyme inhibition – biochemical, confirmation dose response, primary screen (AID 588689); format: functional
Genome polyprotein, sequence (P29990 2492-3391 limits assumed): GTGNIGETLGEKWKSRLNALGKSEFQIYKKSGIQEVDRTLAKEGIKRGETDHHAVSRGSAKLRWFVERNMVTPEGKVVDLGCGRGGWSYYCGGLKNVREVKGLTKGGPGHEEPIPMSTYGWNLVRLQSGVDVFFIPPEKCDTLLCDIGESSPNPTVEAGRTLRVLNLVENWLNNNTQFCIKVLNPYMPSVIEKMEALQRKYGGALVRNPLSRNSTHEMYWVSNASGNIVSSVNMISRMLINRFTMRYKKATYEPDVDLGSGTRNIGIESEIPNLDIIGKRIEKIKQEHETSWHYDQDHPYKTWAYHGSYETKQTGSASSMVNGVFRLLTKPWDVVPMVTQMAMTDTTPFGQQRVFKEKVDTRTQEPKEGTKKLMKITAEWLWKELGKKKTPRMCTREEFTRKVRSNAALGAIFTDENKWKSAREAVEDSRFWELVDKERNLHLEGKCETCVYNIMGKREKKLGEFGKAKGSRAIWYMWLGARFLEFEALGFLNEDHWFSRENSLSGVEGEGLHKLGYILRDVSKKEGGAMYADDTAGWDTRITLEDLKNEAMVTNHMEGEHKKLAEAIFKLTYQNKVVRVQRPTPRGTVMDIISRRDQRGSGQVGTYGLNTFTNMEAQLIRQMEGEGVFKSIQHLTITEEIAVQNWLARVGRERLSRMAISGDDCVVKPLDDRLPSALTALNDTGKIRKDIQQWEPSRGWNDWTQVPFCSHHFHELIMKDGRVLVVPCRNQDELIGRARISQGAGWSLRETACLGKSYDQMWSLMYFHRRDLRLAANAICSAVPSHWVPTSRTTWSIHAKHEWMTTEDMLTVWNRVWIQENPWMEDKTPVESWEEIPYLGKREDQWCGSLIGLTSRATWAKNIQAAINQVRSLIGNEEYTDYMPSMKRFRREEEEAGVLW

Beta-lactamase [18] = molecular target: Beta-lactamase (Salmonella choleraesuis (strain SC-B67), UniProt Q5J463)
Beta-lactamase (Salmonella choleraesuis (strain SC-B67), UniProt Q5J463), sequence (Q5J463 whole entry): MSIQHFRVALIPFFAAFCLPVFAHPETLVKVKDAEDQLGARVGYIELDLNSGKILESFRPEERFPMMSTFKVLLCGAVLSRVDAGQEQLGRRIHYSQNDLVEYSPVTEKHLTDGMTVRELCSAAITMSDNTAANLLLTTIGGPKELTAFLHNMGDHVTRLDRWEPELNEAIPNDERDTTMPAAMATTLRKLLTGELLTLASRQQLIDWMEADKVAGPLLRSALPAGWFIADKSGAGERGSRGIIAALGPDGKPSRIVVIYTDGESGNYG

H9c2 = experiment: cells; format: functional, cell-based; conditions: Rattus norvegicus, H9c2, Myocardium;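 further: confirmatory concentration-response retest of ultra-high-throughput screening hits for modulation of myocardial damage; cell death induced by hydrogen peroxide oxidative stress; compound pretreatment for 60 min then peroxide exposure for 2 h; potency is for protecting the cells against peroxide damage rather than for killing them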
Beta-lactamase [19] = molecular target: Beta-lactamase (Pseudomonas aeruginosa, UniProt Q79MP6);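 further: biochemical dose-response test of metallo-beta-lactamase enzyme inhibition, read out by epi-absorbance; purified recombinant IMP-1 metallo-beta-lactamase with nitrocefin as substrate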
Beta-lactamase (Pseudomonas aeruginosa, UniProt Q79MP6), sequence (Q79MP6 whole entry): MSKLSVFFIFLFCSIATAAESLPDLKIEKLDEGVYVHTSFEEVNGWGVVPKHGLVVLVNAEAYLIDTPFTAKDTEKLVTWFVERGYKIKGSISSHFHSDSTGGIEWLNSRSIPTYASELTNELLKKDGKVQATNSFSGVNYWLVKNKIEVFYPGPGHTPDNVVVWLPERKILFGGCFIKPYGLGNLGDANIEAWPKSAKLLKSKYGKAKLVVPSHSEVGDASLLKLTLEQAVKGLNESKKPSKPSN

Steroidogenic factor 1, sequence (Q13285 whole entry): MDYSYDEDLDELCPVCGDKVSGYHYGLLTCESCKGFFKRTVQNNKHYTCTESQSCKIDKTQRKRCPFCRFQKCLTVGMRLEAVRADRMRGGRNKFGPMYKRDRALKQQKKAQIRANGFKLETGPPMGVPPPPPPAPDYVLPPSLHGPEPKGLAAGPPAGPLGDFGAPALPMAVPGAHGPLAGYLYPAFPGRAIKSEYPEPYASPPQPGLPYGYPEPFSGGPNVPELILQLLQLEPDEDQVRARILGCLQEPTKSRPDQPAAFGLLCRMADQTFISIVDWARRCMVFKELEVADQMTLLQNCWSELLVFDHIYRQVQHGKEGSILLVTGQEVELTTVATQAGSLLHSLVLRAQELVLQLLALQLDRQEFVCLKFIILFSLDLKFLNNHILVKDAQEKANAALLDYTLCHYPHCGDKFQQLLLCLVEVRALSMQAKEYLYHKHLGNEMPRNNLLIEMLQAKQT

SMILES: Cc1cccc(NC(=O)CSc2nc3n[nH]cc3c(=O)[nH]2)c1C
- IC50 (Steroidogenic factor 1): 2.59 µM (active)
- IC50 [1]: > 47.1 µM (inactive)
- IC50 [2]: 6.29 µM (active)
- IC50 (Leucine aminopeptidase): 4.46 µM (active)
- EC50 [3]: > 53 µM (inactive)

SMILES: CCOC(=O)Cn1/c(=N/C(=O)c2sc3ccccc3c2Cl)sc2cc(S(N)(=O)=O)ccc21
- IC50 (SUMO-activating enzyme [4]): 11.8 µM (active)
- EC50 [5]: 14.3 µM (not active)
- IC50 [6]: 52.2 µM (inactive)
- IC50 [7]: 2.06 µM (active)
- EC50 [8]: 46.4 µM (active)
- EC50 [9]: 11.3 µM (not active)
- EC50 [10]: 72.5 µM (active)
- IC50 [11]: 27.7 µM (inactive)
- IC50 (SUMO-activating enzyme [12]): 4.97 µM (active)
- EC50 [13]: 7.96 µM (active)
- IC50 [14]: 16.4 µM (active)

SMILES: O=[N+]([O-])c1ccc(N2CCN(S(=O)(=O)c3ccccc3)CC2)cc1NCc1cccnc1
- IC50 (Steroidogenic factor 1): 5.39 µM (active)
- IC50 [15]: 35.9 µM (inactive)
- IC50 [2]: 14.8 µM (inactive)

SMILES: CCOc1ccc(NS(=O)(=O)c2ccc(Cl)c(NN=C3C(=O)NC(=S)NC3=O)c2)cc1Br
- IC50 [16]: 55 µM (active)
- IC50 [17]: 5.55 µM (active)
- IC50 (Genome polyprotein): 44.1 µM (active)

SMILES: O=C(Nc1ccc2oc(-c3ccccc3F)nc2c1)c1ccc([N+](=O)[O-])o1
- IC50 (Beta-lactamase [18]): > 59.6 µM (inactive)
- IC50 [6]: 7.64 µM (active)
- IC50 [7]: 1.23 µM (active)
- IC50 (H9c2): > 79 µM (inactive)
- IC50 [11]: 3.72 µM (active)
- IC50 (Beta-lactamase [19]): > 59.6 µM (inactive)
- IC50 [14]: 3.79 µM (active)
